Experimental data from patent publication US20080161249A1, “Use of Novel Antibacterial Compounds” (SMITHKLINE BEECHAM CORPORATION, priority 2004, published 2008).
≈ marks a conversion by molar mass, not a printed value. Read-outs that look alike come from different tables or passages of the source.

How the values were obtained:
S. pneumoniae 1629 = assay: MIC against S. pneumoniae 1629, alone and with subinhibitory concentrations of a second agent; type: cell-based, Streptococcus pneumoniae; conditions: for MIC, antibiotic with 0.06 ug/mL (¼ MIC) of Compound (1b) / fold decrease MIC, antibiotic with 0.06 ug/mL (¼ MIC) of Compound (1b) / MIC, antibiotic with […] (½ MIC) of Compound (1b) / fold decrease MIC, antibiotic with […] (½ MIC) of Compound (1b) / MIC, antibiotic alone / Compound (1b) fold decrease MIC: S. pneumoniae 1629; for MIC, antibiotic with 0.06 ug/mL (¼ MIC) of Compound (1b) / fold decrease MIC, antibiotic with 0.06 ug/mL (¼ MIC) of Compound (1b): +0.06 ug/mL Compound (1b); for MIC, antibiotic alone: single agent; for MIC: Streptococcus pneumoniae, 1629, S. pneumoniae 1629
S. aureus WCUH29 = assay: MIC against S. aureus WCUH29, alone and with subinhibitory concentrations of a second agent; type: cell-based, Staphylococcus aureus; conditions: for MIC, antibiotic with 0.5 ug/mL (¼ MIC) of Compound (1a) / fold decrease MIC, antibiotic with 0.5 ug/mL (¼ MIC) of Compound (1a) / MIC, antibiotic with 1 ug/mL (½ MIC) of Compound (1a) / fold decrease MIC, antibiotic with 1 ug/mL (½ MIC) of Compound (1a) / MIC, antibiotic alone: S. aureus WCUH29; for MIC, antibiotic with 0.5 ug/mL (¼ MIC) of Compound (1a) / fold decrease MIC, antibiotic with 0.5 ug/mL (¼ MIC) of Compound (1a): +0.5 ug/mL Compound (1a); for MIC, antibiotic with 1 ug/mL (½ MIC) of Compound (1a) / fold decrease MIC, antibiotic with 1 ug/mL (½ MIC) of Compound (1a): +1 ug/mL Compound (1a); for MIC, antibiotic alone: single agent; for decrease of MIC by subinhibitory concentrations of Compound (1a): S. aureus, Example 3; for MIC: Staphylococcus aureus, WCUH29, S. aureus WCUH29, no second agent, read-out: MIC, single agent
H. influenzae Q1 = assay: MIC against H. influenzae Q1, alone and with subinhibitory concentrations of a second agent; type: cell-based, Haemophilus influenzae;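 note: combinations paired PDF inhibitors with macrolides, one class added below its own MIC to test whether the MIC of the other class dropped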
S. aureus strain Oxford = assay: MIC against S. aureus strain Oxford, alone and in combination; type: cell-based, Staphylococcus aureus
Text: (§1) Subinhibitory Concentrations of PDF Inhibitors Decrease the MICs of Macrolides against Representative S. aureus Strains
(§2) Subinhibitory Concentrations of Macrolides Decrease the MICs of PDF Inhibitors against Representative S. aureus Strains

S. aureus strain RN4220 = assay: MIC against S. aureus strain RN4220, alone and in combination; type: cell-based, Staphylococcus aureus
S. aureus strain PK1 = assay: MIC against S. aureus strain PK1, alone and in combination; type: cell-based, Staphylococcus aureus
Text: as §1, §2

S. aureus strain Smith = assay: MIC against S. aureus strain Smith, alone and in combination; type: cell-based, Staphylococcus aureus
[1] = no second agent, read-out: MIC, single agent
[2] = H. influenzae Q1, +0.25 ug/m Azithromycin
[3] = H. influenzae Q1, +0.5 ug/mL Azithromycin
[4] = H. influenzae Q1, +0.5 ug/mL Compound (1a)
[5] = H. influenzae Q1, +1 ug/mL Compound (1a)
[6] = H. influenzae Q1, single agent (Example 7)
[7] = Staphylococcus aureus, macrolide alone, read-out: MIC, −Compound (1a)

SMILES	decrease of MIC by subinhibitory concentrations of Compound (1b) (S. pneumoniae 1629; S. pneumoniae)	MIC, antibiotic with 0.06 ug/mL (¼ MIC) of Compound (1b) (S. pneumoniae 1629) [µg/mL]	fold decrease MIC, antibiotic with 0.06 ug/mL (¼ MIC) of Compound (1b) (S. pneumoniae 1629)	MIC, antibiotic with […] (½ MIC) of Compound (1b) (S. pneumoniae 1629) [µg/mL]	fold decrease MIC, antibiotic with […] (½ MIC) of Compound (1b) (S. pneumoniae 1629)	MIC, antibiotic alone (S. pneumoniae 1629) [µg/mL]	MIC (S. pneumoniae 1629; [1]) [µg/mL]	MIC, antibiotic with 0.5 ug/mL (¼ MIC) of Compound (1a) (S. aureus WCUH29) [µg/mL]	fold decrease MIC, antibiotic with 0.5 ug/mL (¼ MIC) of Compound (1a) (S. aureus WCUH29)	MIC, antibiotic with 1 ug/mL (½ MIC) of Compound (1a) (S. aureus WCUH29) [µg/mL]	fold decrease MIC, antibiotic with 1 ug/mL (½ MIC) of Compound (1a) (S. aureus WCUH29)	MIC, antibiotic alone (S. aureus WCUH29) [µg/mL]	decrease of MIC by subinhibitory concentrations of Compound (1a) (S. aureus WCUH29)	MIC (S. aureus WCUH29) [µg/mL]	MIC, antibiotic with 0.5 ug/mL (¼ MIC) of Compound (1a) (H. influenzae Q1; [4]) [µg/mL]	MIC, antibiotic with 1 ug/mL (½ MIC) of Compound (1a) (H. influenzae Q1; [5]) [µg/mL]	MIC, antibiotic alone (H. influenzae Q1; [6]) [µg/mL]	also measured
C/C(=C\C(=O)OCCCCCCCCC(=O)O)C[C@@H]1OC[C@H](C[C@@H]2O[C@H]2[C@@H](C)[C@H](C)O)[C@@H](O)[C@H]1O [Mupirocin, mupirocin]	no effect	0.5	[0] fold	0.5	[0] fold	0.5 (≈ 0.999 µM)	0.5 (≈ 0.999 µM)	0.125	[0] fold	0.125	[0] fold	0.125 (≈ 0.25 µM)	no effect					
CCCCC[C@H](CN(O)C=O)C(=O)NNc1nnc2cccc(C)c2n1 [Compound (1c), N-hydroxy((2R)-2-{[2-(5-methyl-1,2,4-benzotriazin-3-yl)hydrazino]carbonyl}heptyl)formamide]																		MIC, antibiotic with 0.25 ug/m (¼ MIC) of Azithromycin (H. influenzae Q1; [2]): 0.5 µg/mL; fold decrease MIC, antibiotic with 0.25 ug/m (¼ MIC) of Azithromycin (H. influenzae Q1; [2]): [2] fold; MIC, antibiotic with 0.5 ug/mL (½ MIC) of Azithromycin (H. influenzae Q1; [3]): 0.125 µg/mL; fold decrease MIC, antibiotic with 0.5 ug/mL (½ MIC) of Azithromycin (H. influenzae Q1; [3]): [8] fold; MIC, antibiotic alone (H. influenzae Q1; H. influenzae Q1, single agent (Example 8)): 1 µg/mL (≈ 2.77 µM)
O=C(O)c1cn(C2CC2)c2cc(N3CCNCC3)c(F)cc2c1=O [Ciprofloxacin, ciprofloxacin]	no effect	0.5	[0] fold	0.5	[0] fold	0.5 (≈ 1.51 µM)	0.5 (≈ 1.51 µM)	0.25	[0] fold	0.25	[0] fold	0.25 (≈ 0.754 µM)	no effect	0.25 (≈ 0.754 µM)	0.008	0.008	0.008 (≈ 0.0241 µM)	fold decrease MIC, antibiotic with 0.5 ug/mL (¼ MIC) of Compound (1a) (H. influenzae Q1; [4]): [0] fold; fold decrease MIC, antibiotic with 1 ug/mL (½ MIC) of Compound (1a) (H. influenzae Q1; [5]): [0] fold; decrease of MIC by subinhibitory concentrations of Compound (1a) (H. influenzae Q1; H. influenzae, text summary of Example 7): no effect
CC[C@H]1OC(=O)[C@H](C)[C@@H](O[C@H]2C[C@@](C)(OC)[C@@H](O)[C@H](C)O2)[C@H](C)[C@@H](O[C@@H]2O[C@H](C)C[C@H](N(C)C)[C@H]2O)[C@](C)(O)C[C@@H](C)CN(C)[C@H](C)[C@@H](O)[C@]1(C)O [Azithromycin, azithromycin]	2-8 fold	0.016				0.03 (≈ 0.0401 µM)	0.03 (≈ 0.0401 µM)			0.03		1 (≈ 1.34 µM)	8-32 fold	1 (≈ 1.34 µM)	0.25		1 (≈ 1.34 µM)	MIC (S. aureus strain Oxford; [7]): 0.5 µg/mL; MIC, +Compound (1a) [¼ × MIC] (S. aureus strain Oxford; with ¼ × MIC of Compound (1a)): 0.25 µg/mL; MIC, +Compound (1a) [½ × MIC] (S. aureus strain Oxford; with ½ × MIC of Compound (1a)): 0.06 µg/mL; MIC (S. aureus strain RN4220; [7]): 1 µg/mL; MIC, +Compound (1a) [¼ × MIC] (S. aureus strain RN4220; with ¼ × MIC of Compound (1a)): 0.25 µg/mL; MIC (S. aureus strain PK1; [7]): > 64 µg/mL; MIC, +Compound (1a) [¼ × MIC] (S. aureus strain PK1; with ¼ × MIC of Compound (1a)): 32 µg/mL; MIC, +Compound (1a) [½ × MIC] (S. aureus strain PK1; with ½ × MIC of Compound (1a)): 16 µg/mL; MIC (S. aureus strain Smith; [7]): 1 µg/mL; MIC, +Compound (1a) [¼ × MIC] (S. aureus strain Smith; with ¼ × MIC of Compound (1a)): 0.25 µg/mL
CC[C@H]1OC(=O)[C@H](C)[C@@H](O[C@H]2C[C@@](C)(OC)[C@@H](O)[C@H](C)O2)[C@H](C)[C@@H](O[C@@H]2O[C@H](C)C[C@H](N(C)C)[C@H]2O)[C@](C)(O)C[C@@H](C)C(=O)[C@H](C)[C@@H](O)[C@]1(C)O [Erythromycin, erythromycin]	4-16 fold	0.008				0.03 (≈ 0.0409 µM)	0.03 (≈ 0.0409 µM)			0.016		0.25 (≈ 0.341 µM)	2-16 fold	0.25 (≈ 0.341 µM)	2	1	8 (≈ 10.9 µM)	
O=CN(O)C[C@@H](CC1CCCC1)C(=O)NNc1nc(N2CCOCC2)cc(C(F)(F)F)n1 [Compound (1b), N-hydroxy-N-((2R)-2-(cyclopentylmethyl)-3-{N′-[4-(morpholin-4-yl)-6-(trifluoromethyl)-pyrimidin-2-yl]-hydrazino}-3-oxopropyl)-formamide]							0.25 (≈ 0.543 µM)											decrease of MIC by subinhibitory concentrations of azithromycin (S. pneumoniae 1629; S. pneumoniae): 4-16 fold; decrease of MIC by subinhibitory concentrations of erythromycin (S. pneumoniae 1629; S. pneumoniae): 8-32 fold; effect of subinhibitory concentrations of ciprofloxacin on antibacterial potency (S. pneumoniae 1629; S. pneumoniae): no effect; effect of subinhibitory concentrations of mupirocin on antibacterial potency (S. pneumoniae 1629; S. pneumoniae): no effect; Compound (1b) fold decrease MIC (S. pneumoniae 1629; +Azithromycin 0.008 μg/ml {¼ × MIC}): [4] fold; Compound (1b) fold decrease MIC (S. pneumoniae 1629; +Azithromycin […] {½ × MIC}): [16] fold; Compound (1b) fold decrease MIC (S. pneumoniae 1629; +Ciprofloxacin 0.25 μg/ml {½ × MIC}): [0] fold; Compound (1b) fold decrease MIC (S. pneumoniae 1629; +Ciprofloxacin […] {¼ × MIC}): [0] fold; Compound (1b) fold decrease MIC (S. pneumoniae 1629; +Erythromycin 0.008 μg/ml {¼ × MIC}): [8] fold; Compound (1b) fold decrease MIC (S. pneumoniae 1629; +Erythromycin […] {½ × MIC}): [32] fold; Compound (1b) fold decrease MIC (S. pneumoniae 1629; +Mupirocin 0.25 μg/ml {½ × MIC}): [0] fold; Compound (1b) fold decrease MIC (S. pneumoniae 1629; +Mupirocin […] {¼ × MIC}): [0] fold; MIC (S. pneumoniae 1629; +Azithromycin 0.008 μg/ml {¼ × MIC}, read-out: Compound (1b) MIC): 0.06 µg/mL (≈ 0.13 µM); MIC (S. pneumoniae 1629; +Azithromycin […] {½ × MIC}, read-out: Compound (1b) MIC): 0.016 µg/mL (≈ 0.0347 µM); MIC (S. pneumoniae 1629; +Ciprofloxacin 0.25 μg/ml {½ × MIC}, read-out: Compound (1b) MIC): 0.25 µg/mL (≈ 0.543 µM); MIC (S. pneumoniae 1629; +Ciprofloxacin […] {¼ × MIC}, read-out: Compound (1b) MIC): 0.25 µg/mL (≈ 0.543 µM); MIC (S. pneumoniae 1629; +Erythromycin 0.008 μg/ml {¼ × MIC}, read-out: Compound (1b) MIC): 0.03 µg/mL (≈ 0.0652 µM); MIC (S. pneumoniae 1629; +Erythromycin […] {½ × MIC}, read-out: Compound (1b) MIC): 0.008 µg/mL (≈ 0.0174 µM); MIC (S. pneumoniae 1629; +Mupirocin 0.25 μg/ml {½ × MIC}, read-out: Compound (1b) MIC): 0.25 µg/mL (≈ 0.543 µM); MIC (S. pneumoniae 1629; +Mupirocin […] {¼ × MIC}, read-out: Compound (1b) MIC): 0.25 µg/mL (≈ 0.543 µM)
